Laboratory results reported in patent US20260007680A1, “Compounds and Their Use as PDE4 Activators” (Mironid Limited, priority 2022, published 2026).

test system: m-IMCD3 cells; test: Inhibition of PGE2-stimulated in vitro cyst formation in 3D culture of m-IMCD3 cells (Experiment 4); format: cell-based, mouse; details: Mus musculus, mIMCD3, 144 h, 10 μM test compound, mean cyst area compared to 100% for (DMSO + PGE2) and 0% for DMSO control, read-out: % Cyst area* after incubation with 10 μM test compound
Description: HEK 293 and MDCK cells (Public Health England, Cell Culture Collections) were maintained in Dulbecco's Modified Eagle's Medium (DMEM) supplemented with 10% (v/v) fetal bovine serum (FBS) (Seralab), 2 mM L-glutamine and 100 U/ml penicillin streptomycin cocktail (ThermoFisher); termed complete media. Clonal HEK 293 cell lines were maintained in complete media supplemented with 0.6 mg/mL G418 (Enzo Life Sciences). Mouse inner medullary collecting duct (m-IMCD3) cells [American Type Culture Collection (ATCC)] were maintained in media consisting of DMEM/Hams F-12 50/50 Mix (DMEM F12; Corning) supplemented with penicillin streptomycin cocktail (100 U/ml) and FBS (10% v/v) (DMEM F12-10% FBS).
The mouse Inner Medullary Collecting Duct cell line (m-IMCD3) spontaneously forms cystic spheroids in 3D culture with a Type 1 collagen/Matrigel extracellular matrix. This process can be stimulated with agents which raise intracellular cAMP and is used as an in vitro model for the formation of cystic structures in the kidneys of patients with ADPKD.
Rat Collagen I (Fisher Scientific) is prepared on ice by neutralising with 1 M NaOH and diluting with a 2×volume of DMEM/F12+10% FBS. This is mixed 1:1.1 with ice cold Matrigel (Corning) for coating plates (coating mix), and 1:0.93 with Matrigel for cell plating (plating mix).
The assay is conducted in the wells of a 96-well plate culture dish using a total volume of 130 μL of collagen/Matrigel/DMEM F12-10% FBS suspension in growth media for each matrix plug per individual well. Initially, 30 μL of collagen/Matrigel/DMEM F12-10% FBS (coating mix) is added into the well of a 96 well plate and the collagen is set to a gel by incubating at 37° C. for at least 15 minutes. A second layer of 100 μL collagen/Matrigel suspension (plating mix) containing m-IMCD3 cells (2.75×10^6 m-IMCD3 cells per 96-well plate) is layered over the coating mix and the collagen/Matrigel/cell mix again set to a gel by incubating at 37° C. Cell cultures are maintained at 37° C. in an atmosphere of 5% CO2, 95% air.
Between 18 and 24 h after plating, test compound(s) as DMSO stock solutions [0.1% (v/v) final DMSO concentration] and PGE2 (100 nM final concentration) in DMEM F12-10% FBS are added in quadruplicate wells per condition. Media, together with the test compound and PGE2 are replenished after 2 or 3 days. After 6 days of culture z stack images of the wells are captured using the Nikon Eclipse Ti2-E microscope. Nikon General Analysis software is used to measure the following parameters in each well: the mean cyst area, the number of cysts, and the total cyst area.
PDE4 long form activators inhibited in vitro cyst formation in m-IMCD3 cells. Data are shown in FIG. 2 and Table 4 as mean cyst area (%), compared to 100% for (DMSO+PGE2) and 0% for DMSO control.

Structure (SMILES) | activity at 10 µM [%]
Cc1ccc(-c2nc3cc(C(=O)N[C@H]4CCOc5ccccc54)ccc3[nH]2)cn1 [Example 2, (S)—N-(chroman-4-yl)-2-(6-methylpyridin-3-yl)-1H-benzo[d]imidazole-5-carboxamide] | 17
Cc1cncc(-c2nc3cc(C(=O)N[C@H]4CCOc5ccccc54)ccc3[nH]2)c1 [Example 4, (S)—N-(chroman-4-yl)-2-(5-methylpyridin-3-yl)-1H-benzo[d]imidazole-5-carboxamide] | 18
Cc1cncc(-c2nc3ccc(C(=O)N[C@H]4CCOc5ccccc54)cc3n2C)c1 [Example 28, (S)—N-(chroman-4-yl)-1-methyl-2-(5-methylpyridin-3-yl)-1H-benzo[d]imidazole-6-carboxamide] | 8
Cc1ccncc1-c1nc2cc(C(=O)N[C@H]3CCOc4ccccc43)ccn2n1 [Example 53, (S)—N-(chroman-4-yl)-2-(4-methylpyridin-3-yl)-[1,2,4]triazolo[1,5-a]pyridine-7-carboxamide] | 20
